Source: US8796258B2, “Cyclic azabenzimidazole derivatives useful as anti-diabetic agents” (Merck Sharp & Dohme Corp., priority 2011, dated 2014)
pEC50: −log10 of the molar value.

Experiments:
[1] = tested on: rats displaying characteristics of insulin resistance syndrome; details: rat, in vivo; cited from earlier work
[2] = tested on: obese Zucker (fa/fa) rats; details: 7 week administration; cited from earlier work
ob/ob and db/db mice = details: cited from earlier work
[3] = target: T1, recombinant human AMPK complex 1 (containing α1β1γ1) (Homo sapiens, UniProt Q13131+Q9Y478); assay: AMPKSAMSF in vitro AMPK activation assay; type: biochemical; details: recombinant human AMPK complex 1 (α1β1γ1); for Emax: 10-point titration, read-out: % Maximum AMP Activation of human AMPK Complex 1; for pEC50: inflection point reflecting 50% of the maximum activation
T1 construct: made in house; host or cells: Spodoptera frugiperda Sf21 cells, baculovirus (pBacPak9 clones, triple infection)
Procedure: The recombinant human AMPK complex 1 (containing α1β1γ1) was obtained from baculovirus expression system. Recombinant viruses were generated by cotransfection of AMPK/pBacPak9 clones with Baculogold baculovirus DNA (Pharmingen) in spodoptera frugiperda 21 cells according to the manufacturer's instructions. Each round of virus amplification was performed for 5 days in Grace's medium containing 10% serum. Virus that had been subjected to three rounds of amplification was used for all protein production procedures. To express the AMPK complex, sf21 cells were adapted to serum free medium (SF900 II, Invitrogen) by sequential dilution from serum containing stocks into SF9001I medium and maintained in shaker flasks at 90 rpm at 27° C. The recombinant AMPK enzyme complex was produced by triple infection, one recombinant virus for each of the subunits, in sf21 cells under serum free conditions. Cells were infected in log phase, 1×10^6 cells/ml, at a multiplicity of infection of […]. Cells were harvested by centrifugation at 10,000×g for 15 minutes after 72 hours of infection with viruses. The insect cell pellet from 2 liters of culture was resuspended in 50 ml lysis buffer (20 mM Tris-HCl, 50 mM NaCl, 50 mM NaF, 30 mM Na PPi, 0.25 M sucrose, 10 mM ZnCl2, 2 mM DTT, 0.4 mg/ml digitonin) and subjected to two cycles of freeze-thaw lysis in a dry-ice ethanol bath. Insoluble material was removed by centrifugation at 10,000×g and the supernatant was fractionated with use of polyethylene glycol (PEG). The protein fraction precipitating between 2.5 and 6% PEG was used for further purification using a Blue-Sepharose step (Zhou et al, J. Clin. Invest. 108, 1167-1174, 2001).
The in vitro AMPK activation assay is performed in a volume of 30 μl in a 384-well plate. Enzyme reactions were assembled in the microtiter plate by adding 15 μl of 2× enzyme in assay buffer (20 mM HEPES, pH 7.3, 5 mM MgCl2, 3 mM DTT, 0.01% Brij 35 and CamK Kinase, to activate AMPK) to wells which contained either DMSO or compound. The reaction was initiated with the addition of 15 μl 2× substrate mixture containing 200 μM ATP, and 3.0 μM fluorescently labeled SAMS (5-FAM-HMRSAMSGLHLVKRR-COOH) in assay buffer. After 45-minute incubation at 25° C., the reaction was stopped by the addition of 70 μl stop buffer (100 mM HEPES, pH 7.3, 40 mM EDTA, 0.015% Brij 35). Phosphorylated 5-FAM SAMS product is assessed using a Caliper EZ Reader LabChip microfluidics reader. Product conversion is determined by calculating the peak heights of the substrate and product and reporting the product/(product+substrate) peak ratio. The 10-point titration data were expressed as % maximum AMP activation. The results were plotted using 4 parameter fit and the inflection point reflecting 50% of the maximum activation was reported as the EC50.

T1 sequence (Q13131 whole entry): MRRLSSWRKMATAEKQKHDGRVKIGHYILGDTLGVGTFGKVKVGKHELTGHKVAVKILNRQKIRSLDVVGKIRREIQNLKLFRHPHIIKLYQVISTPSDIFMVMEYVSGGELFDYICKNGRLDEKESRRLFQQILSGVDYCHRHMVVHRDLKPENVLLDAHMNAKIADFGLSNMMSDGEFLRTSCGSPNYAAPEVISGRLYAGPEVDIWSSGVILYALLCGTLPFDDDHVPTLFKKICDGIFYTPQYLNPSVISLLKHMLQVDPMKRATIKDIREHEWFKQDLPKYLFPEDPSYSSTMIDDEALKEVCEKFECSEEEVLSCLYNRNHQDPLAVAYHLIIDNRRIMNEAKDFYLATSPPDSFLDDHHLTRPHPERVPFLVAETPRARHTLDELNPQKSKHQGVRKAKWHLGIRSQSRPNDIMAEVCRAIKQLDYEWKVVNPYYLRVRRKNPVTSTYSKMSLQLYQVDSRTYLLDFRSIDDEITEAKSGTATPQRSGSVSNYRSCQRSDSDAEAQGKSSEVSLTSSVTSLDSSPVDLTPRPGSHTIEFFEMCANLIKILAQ
T1 sequence (Q9Y478 whole entry): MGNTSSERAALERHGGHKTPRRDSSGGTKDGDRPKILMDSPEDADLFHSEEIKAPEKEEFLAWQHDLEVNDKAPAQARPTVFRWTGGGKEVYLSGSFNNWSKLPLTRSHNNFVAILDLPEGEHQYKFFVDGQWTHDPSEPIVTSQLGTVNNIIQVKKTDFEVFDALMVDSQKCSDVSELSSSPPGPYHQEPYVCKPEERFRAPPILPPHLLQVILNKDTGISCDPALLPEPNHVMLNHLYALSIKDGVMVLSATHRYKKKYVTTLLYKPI
T1 sequence (P54619 whole entry partner): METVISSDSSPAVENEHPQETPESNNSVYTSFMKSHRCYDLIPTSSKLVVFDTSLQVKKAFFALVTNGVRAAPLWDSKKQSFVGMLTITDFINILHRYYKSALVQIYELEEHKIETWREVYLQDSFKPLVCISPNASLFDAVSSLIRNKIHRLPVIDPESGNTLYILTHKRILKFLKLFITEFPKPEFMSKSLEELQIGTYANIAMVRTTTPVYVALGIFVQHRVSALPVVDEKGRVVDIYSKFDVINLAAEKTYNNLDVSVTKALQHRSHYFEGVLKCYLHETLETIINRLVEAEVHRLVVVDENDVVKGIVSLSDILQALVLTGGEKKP

Structure (SMILES): NC(=O)c1ncn([C@@H]2O[C@H](CO)[C@@H](O)[C@H]2O)c1N [AICAR]
- blood pressure [1]: reduction of blood pressure
- HDL cholesterol [2]: increase in HDL cholesterol
- glucose metabolism as assessed by an oral glucose tolerance test [2]: normalization of glucose metabolism
- plasma triglycerides and free fatty acids [2]: reduction in plasma triglycerides and free fatty acids
- glucose homeostasis (ob/ob and db/db mice; insulin-resistant diabetic (ob/ob) mice): improvement in glucose homeostasis
- blood glucose reduction (ob/ob and db/db mice; ob/ob and db/db mice, following 8 weeks of administration): 35%

Structure (SMILES): Cc1ccc(Oc2nc3nc(-c4ccc(N5CCCC5)cc4)c(Cl)cc3[nH]2)cc1C(=O)O [Example 3]
- Emax [3]: 681%
- pEC50 [3]: 9.00

Structure (SMILES): O=C(O)[C@H]1CC[C@H](Oc2nc3nc(-c4ccc(-c5ccccc5)cc4)c(Cl)cc3[nH]2)CC1 [Example 29]
- Emax [3]: 798%
- pEC50 [3]: 8.15

Structure (SMILES): O=C(O)C1CCC(Oc2nc3nc(-c4ccc(N5CCCC5)cc4)c(Cl)cc3[nH]2)CC1 (centres unmarked) [Example 30]
- Emax [3]: 852%

Structure (SMILES): O=C(O)[C@H]1CC[C@H](Oc2nc3nc(-c4ccc(N5CCCC5)cc4)c(Cl)cc3[nH]2)CC1 [Example 30]
- pEC50 [3]: 7.62

Structure (SMILES): CS(=O)(=O)c1ccc(-c2ccc(-c3nc4nc(O[C@H]5CC[C@H](C(=O)O)CC5)[nH]c4cc3Cl)cc2)cc1 [Example 79, Trans-4-({6-chloro-5-[4′-(methylsulfonyl)biphenyl-4-yl]-1H-imidazo[4,5-b]pyridin-2-yl}oxy)cyclohexanecarboxylic acid]
- Emax [3]: 661%
- pEC50 [3]: 8.30

Structure (SMILES): OCC1(CO)CC(Oc2nc3nc(-c4ccc(-c5ccccc5)cc4)c(Cl)cc3[nH]2)C1 [Example 111]
- Emax [3]: 813%
- pEC50 [3]: 7.55

Structure (SMILES): CC(C)(O)[C@H]1C[C@@H](Oc2nc3nc(-c4ccc(-c5ccc(S(C)(=O)=O)cc5)cc4)c(Cl)cc3[nH]2)C1 [Example 130, 2-[cis-3-({6-chloro-5-[4′-(methylsulfonyl)biphenyl-4-yl]-1H-imidazo[4,5-b]pyridin-2-yl}oxy)cyclobutyl]propan-2-ol]
- Emax [3]: 440%
- pEC50 [3]: 7.33

Structure (SMILES): OC[C@H]1OC[C@H](Oc2nc3nc(-c4ccc(-c5ccccc5)cc4)c(Cl)cc3[nH]2)C[C@@H]1O [Example 140, (2R3S,5R)-5-[[6-chloro-5-(4-phenylphenyl)-1H-imidazo[4,5-b]pyridin-2-yl]oxy]-2-(hydroxymethyl)tetrahydropyran-3-ol]
- Emax [3]: 668%
- pEC50 [3]: 7.42

Structure (SMILES): O[C@@H]1CO[C@H]2[C@@H]1OC[C@H]2Oc1nc2nc(-c3ccc(-c4ccccc4)cc3)c(Cl)cc2[nH]1 [Example 159, 1,4:3,6-dianhydro-2-O-[5-(biphenyl-4-yl)-6-chloro-1H-imidazo[4,5-b]pyridin-2-yl]-D-mannitol]
- Emax [3]: 373%
- pEC50 [3]: 8.40

Structure (SMILES): O[C@@H]1CO[C@H]2[C@@H]1OC[C@H]2Oc1nc2nc(-c3ccc(-c4ccc(-n5cccn5)cc4)cc3)c(Cl)cc2[nH]1 [Example 163, (3R,3aR,6R,6aR)-6-[[6-chloro-5-[4-(4-pyrazol-1-ylphenyl)phenyl]-1H-imidazo[4,5-b]pyridin-2-yl]oxy]-2,3,3a,5,6,6a-hexahydrofuro[3,2-b]furan-3-ol]
- Emax [3]: 362%
- pEC50 [3]: 9.52

Structure (SMILES): CC(C)(O)Cn1cc2c(n1)CN(c1ccc(-c3nc4nc(O[C@@H]5CO[C@H]6[C@@H]5OC[C@H]6O)[nH]c4cc3Cl)cc1)C2 [Example 171, (3R,3aR,6R,6aR)-6-[[6-chloro-5-[4-[2-(2-hydroxy-2-methyl-propyl)-4,6-dihydropyrrolo[3,4-c]pyrazol-5-yl]phenyl]-1H-imidazo[4,5-b]pyridin-2-yl]oxy]-2,3,3a,5,6,6a-hexahydrofuro[3,2-b]furan-3-ol]
- Emax [3]: 252%
- pEC50 [3]: 9.00

Structure (SMILES): CC(C)(F)Cn1cc2c(n1)CN(c1ccc(-c3nc4nc(O[C@@H]5CO[C@H]6[C@@H]5OC[C@H]6O)[nH]c4cc3Cl)cc1)C2 [Example 172]
- Emax [3]: 249%
- pEC50 [3]: 8.70

Structure (SMILES): O[C@@H]1CO[C@H]2[C@@H]1OC[C@H]2Oc1nc2nc(-c3ccc(-n4cc5c(n4)CNC5)cc3)c(Cl)cc2[nH]1 [Example 177]
- Emax [3]: 368%
- pEC50 [3]: 7.74

Structure (SMILES): O=S(=O)(NC1CC1)n1cc2c(n1)CN(c1ccc(-c3nc4nc(O[C@@H]5CO[C@H]6[C@@H]5OC[C@H]6O)[nH]c4cc3Cl)cc1)C2 [Example 178]
- Emax [3]: 223%
- pEC50 [3]: 9.00

Structure (SMILES): O[C@@H]1CO[C@H]2[C@@H]1OC[C@H]2Oc1nc2nc(-c3ccc(-c4ccc(-n5cccn5)nc4)cc3)c(Cl)cc2[nH]1 [Example 179, (3R,3aR,6R,6aR)-6-[[6-chloro-5-[4-(6-pyrazol-1-yl-3-pyridyl)phenyl]-1H-imidazo[4,5-b]pyridin-2-yl]oxy]-2,3,3a,5,6,6a-hexahydrofuro[3,2-b]furan-3-ol]
- Emax [3]: 292%
- pEC50 [3]: 9.05

Structure (SMILES): O[C@@H]1CO[C@H]2[C@@H]1OC[C@H]2Oc1nc2nc(-c3ccc(-c4ccc(-n5cncn5)cc4)cc3)c(Cl)cc2[nH]1 [Example 180, (3R,3a,6R,6aR)-6-[[6-chloro-5-[4-[4-(1,2,4-triazol-1-yl)phenyl]phenyl]-1H-imidazo[4,5-b]pyridin-2-yl]oxy]-2,3,3a,5,6,6a-hexahdrofuro[3,2-b]furan-3-ol]
- Emax [3]: 350%
- pEC50 [3]: 9.52

Structure (SMILES): CC(C)(O)Cc1cnn(-c2ccc(-c3ccc(-c4nc5nc(O[C@@H]6CO[C@H]7[C@@H]6OC[C@H]7O)[nH]c5cc4Cl)cc3)cc2)c1 [Example 190]
- Emax [3]: 374%
- pEC50 [3]: 9.00

Structure (SMILES): CC(C)(O)Cc1cnn(-c2ccc(-c3ccc(-c4nc5nc(O[C@@H]6CO[C@H]7[C@@H]6OC[C@H]7O)[nH]c5cc4Cl)cc3)nc2)c1 [Example 202, (3R,3aR,6R,6aR)-6-[[6-chloro-5-[4-[5-[4-(2-hydroxy-2-methyl-propyl)pyrazol-1-yl]-2-pyridyl]phenyl]-1H-imidazo[4,5-b]pyridin-2-yl]oxy]-2,3,3a,5,6,6a-hexahydrofuro[3,2-b]furan-3-ol]
- Emax [3]: 372%
- pEC50 [3]: 9.00

Structure (SMILES): O[C@@H]1CO[C@@H]2C(Oc3nc4nc(-c5ccc(-c6ccc(-c7nnn[nH]7)cc6)cc5)c(Cl)cc4[nH]3)CO[C@H]12 (stereo partly drawn) [Example 207, (3R,3aR,6R,6R)-6-[[6-chloro-5-[4-[4-(1H-tetrazol-5-yl)phenyl]phenyl]-1H-imidazo[4,5-b]pyridin-2-yl]oxy]-2,3,3a,5,6,6a-hexahydrofuro[3,2-b]furan-3-ol]
- Emax [3]: 289%
- pEC50 [3]: 9.30

Structure (SMILES): O[C@@H]1CO[C@H]2[C@@H]1OC[C@H]2Oc1nc2nc(-c3ccc(C#CC4CCNCC4)cc3)c(Cl)cc2[nH]1 [Example 214, (3R,3aR,6R,6aR)-6-((6-chloro-5-(4-(piperidin-4-ylethynyl)phenyl)-1H-imidazo[4,5-b]pyridin-2-yl)oxy)hexahydrofuro[3,2-b]furan-3-ol]
- Emax [3]: 386%
- pEC50 [3]: 8.22
